Measurements taken from publication PMC5750218, “Protein-inspired antibiotics active against vancomycin- and daptomycin-resistant bacteria” (Nature Communications, 2018).
In brackets after ≈: the same amount, converted by molar mass. Where two headings read alike, the source gives them in different places.

What was measured:
[1] = tested on: bioluminescent MSSA Xen-29; assay: Bioluminescence IP infection in vivo model (neutropenic mice); parameters: species or system Staphylococcus aureus; details: SC: 200 mg kg^−1 vancomycin, 50 mg kg^−1 daptomycin, 25 mg kg^−1 19 or 24
Method: Performed at the University of Queensland, following similar previous literature procedures. Xen-29 (Caliper LifeSciences), a methicillin-sensitive S. aureus (MSSA) strain which contains a copy of the modified luxABCDE operon of Photorhabdus luminescens was taken from the storage at −80 °C and freshly seeded on agar plates for overnight growth at 37 °C. From the overnight culture preparation, a single colony (tested for bioluminescence) was diluted into 10 mL of MHB and incubated overnight at 37 °C. A mid log-phase subculture was obtained by adding 100 μL of overnight subculture in 10 mL MHB and incubated for a further 2–3 h. Finally, the OD600 value of the bacterial suspension was determined and the colony forming units per millilitre (CFU mL^−1) was extrapolated. The suspension was then diluted out accordingly in order to achieve a 2.5 × 10^8 CFU mL^−1 solution (2.5 × 10^7 CFU in 100 μL). […] Mice were monitored for signs of normal behaviour (i.e. grooming, eating, drinking, sleeping and alertness) during and following dosing. […] Xen-29 colonies were then counted, with the CFU mL^−1 blood calculated. […] Luminescent images were quantified with the IVIS Living Image software where the total flux (number of photons/second) was calculated by a user defined region of interest (ROI) covering the infection sites.

HepG2 cells = assay: Cytotoxicity MTT assay; format: cell-based, human
[2] = cited from earlier work; for log decrease: CAMHB with polysorbate-80; for log reduction from initial inoculum: nutrient-depleted media, ref Belley AAC 2009 53, 918
[3] = tested on: S. aureus (MRSA) ATCC 43300; assay: Resistance frequency assay; format: cell-based; details: Staphylococcus aureus; TSB 1% agarose, 0.002% Tween 80; read-out: Agarose plate MIC
Method: The resistance frequency for Compound 19 was determined following literature procedures[41], [42].
Compound 19 was prepared to 160 µg mL^−1 solution in water from the given stock solution of 1 mM concentration. Vancomycin was prepared to 1.28 mg mL^−1 solution in water.
Tryptic soy broth (TSB) with 1% agarose and 0.002% Tween 80 was maintained at 45 to 50 °C in a water bath. 160 mL of agarose was transferred to 200 mL glass bottle, maintaining the remaining agarose in the water bath. […] A volume of 80 mL of agarose sample [A] was plated in four petri plates (duplicates/condition—neat, 10^−1) with swirling to ensure that the bottom of the plate was coated equally. An additional 80 mL of fresh agarose was added to the remaining 80 mL of agarose [A] sample to achieve a twofold dilution to provide agarose sample [B]. Once again, 80 mL of agarose sample [B] was plated in four petri plates. […]
Bacteria were subcultured at 37 °C overnight with shaking at 220 rpm. […] Resultant separated visible colonies were counted; those colonies that grow together were not included to determine the titre of the culture. […]
The colonies were counted after 24 h. The resistance frequency is determined by dividing the number of colonies obtained on the plates containing the antibacterial agent by the number of cells plated.

[4] = tested on: S. aureus ATCC 43300 (MRSA); assay: Time kill assay; format: cell-based, Staphylococcus aureus
Method: S. aureus ATCC® 43300™ (MRSA) was cultured in MHB (BactoLaboratories, Cat. No 211443) at 37 °C overnight. A sample was then diluted 40-fold in fresh MHB and incubated at 37 °C for 2–3 h until the culture reached early exponential phase (OD600 of 0.2–0.4). Vancapticin 24 ([…] and 0.003 µg mL^−1) and vancomycin (4, 2, 1 and 0.5 µg mL^−1) were serially diluted twofold across the wells of 96-well microtitre plates (NBS, Corning 3641) with a final volume of 50 µL, then combined with 50 µL of bacterial inoculum (giving a final cell density of 5 × 10^5 CFU mL^−1) and incubated at 37 °C. Serial dilutions of the cultures were plated at each desired time point, using a multichannel pipette as follows: in row A of a 96-well plate, 50 µL of sterile activated charcoal suspension (25 mg mL^−1) was added, while 90 µL of 0.9% sterile saline per well was added to the other rows. At selected time-points, 50 µL aliquots were transferred from the time-kill assay plate to the first row containing the charcoal suspension and mixed well. […] The colonies in each spot were counted and used to calculate the number of viable CFU mL^−1 remaining in the original culture by considering the dilution factors (1:2 in charcoal, the serial dilution factor and the volume of the aliquot spotted).

[5] = tested on: S. pneumoniae (ATCC 6301); assay: S. pneumoniae lung infection in vivo efficacy model (mice); parameters: species or system Streptococcus pneumoniae; details: 25 mg kg^−1 SC qd, 10 days
Method: The study objective was to evaluate the antimicrobial activity of test articles in a lung infection model with S. pneumoniae (ATCC® 6301™). Male ICR mice were inoculated intratracheally (IT) with S. pneumoniae at an inoculum size of 2.96 × 10^6 CFU per mouse (20 µL per mouse). […] The reference standard, vancomycin 1, was dosed at 25 mg kg^−1 qd SC at 2 h after IT inoculation. […] An increase in survival rate of 50 percent or more ( ≥ 50%) of the treated animals relative to the vehicle group indicates significant antimicrobial activity.
Test substances at 25 mg kg^−1 were each administered subcutaneously (SC) to test animals 2 h after inoculation. The dosing volume was 10 mL kg^−1.
Vehicle (10 mL kg^−1), vancomycin and test substances at 25 mg kg^−1 were each administered subcutaneously 2 h post-infection. Mortality was recorded daily for 10 days following inoculation. Increase of 50 percent or more (≥ 50%) in survival rate relative to the vehicle control group indicates significant anti-infective activity.

For `CCCCCCCCCC(=O)N[C@@H](Cc1c[nH]c2ccccc12)C(=O)N[C@H](CC(N)=O)C(=O)N[C@@H](CC(=O)O)C(=O)N[C@@H]1C(=O)NCC(=O)N[C@@H](CCCN)C(=O)N[C@@H](CC(=O)O)C(=O)N[C@H](C)C(=O)N[C@@H](CC(=O)O)C(=O)NCC(=O)N[C@H](CO)C(=O)N[C@@H]([C@H](C)CC(=O)O)C(=O)N[C@@H](CC(=O)c2ccccc2N)C(=O)O[C@@H]1C` [Compound 4, Daptomycin], the “Change in bioluminescence signal (total flux) after inoculation” value [1] was “progressive reduction in the bioluminescence signal”.

For `CN[C@H]1C(=O)N[C@@H]2Cc3ccc(cc3)Oc3cc4cc(c3O[C@@H]3O[C@H](C(=O)O)[C@@H](O)[C@H](O)[C@H]3NC(=O)CCCCCCCCC(C)C)Oc3ccc(cc3Cl)[C@@H](O)[C@@H]3NC(=O)[C@H](NC(=O)[C@@H]4NC(=O)[C@@H](NC2=O)c2cc(cc(O)c2Cl)Oc2cc1ccc2O)c1ccc(O)c(c1)-c1c(O[C@H]2O[C@H](CO)[C@@H](O)[C@H](O)[C@@H]2O)cc(O)cc1[C@@H](C(=O)NCCCN(C)C)NC3=O` [Compound 3, Dalbavancin], the CC50 (HepG2 cells) is given as 259 µM and the log reduction ([2]; 32 µg mL-, 24h, ref Belley AAC 2016 60 4342) is given as 3 log.

In the case of `CN[C@H](CC(C)C)C(=O)N[C@H]1C(=O)N[C@@H](CC(N)=O)C(=O)N[C@H]2C(=O)N[C@H]3C(=O)N[C@H](C(=O)N[C@H](C(=O)O)c4cc(O)cc(O)c4-c4cc3ccc4O)[C@H](O[C@H]3C[C@](C)(N)[C@@H](O)[C@H](C)O3)c3ccc(c(Cl)c3)Oc3cc2cc(c3O[C@@H]2O[C@H](CO)[C@@H](O)[C@H](O)[C@H]2O[C@H]2C[C@](C)(NCc3ccc(-c4ccc(Cl)cc4)cc3)[C@@H](O)[C@H](C)O2)Oc2ccc(cc2Cl)[C@H]1O` [Compound 5, Oritavancin, reference compound], the log decrease ([2]; 4 µg mL-, 1h, ref Belley AAC 2016 60 4342) is listed as 4.5 log, the log decrease ([2]; 4 µg mL-, 1h, ref Mckay, J Antimicrob Chemother 2009, 63 1191) is listed as 4.5 log and the “log reduction from initial inoculum” value ([2]; 4 µg mL-) is listed as 3 log. For the same compound, the log decrease ([2]; 16 µg mL-, 30 min, ref Belley AAC 2016 60 4342) was 4.5 log and the “log reduction from initial inoculum” value ([2]; 16 µg mL-, 3h, no polysorbate-80) was “approximately 4 log”.

For `CN[C@H](CC(C)C)C(=O)N[C@H]1C(=O)N[C@@H](CC(N)=O)C(=O)N[C@H]2C(=O)N[C@H]3C(=O)N[C@H](C(=O)N[C@H](C(=O)O)c4cc(O)cc(O)c4-c4cc3ccc4O)[C@H](O)c3ccc(c(Cl)c3)Oc3cc2cc(c3O[C@@H]2O[C@H](CO)[C@@H](O)[C@H](O)[C@H]2O[C@H]2C[C@](C)(N)[C@H](O)[C@H](C)O2)Oc2ccc(cc2Cl)[C@H]1O` [Compound 1, Vancomycin], the MIC [3] was 1 µg/mL (≈ 0.69 µM), the “Bactericidal profile in time kill assay” value [4] was “slowly bactericidal” and the “survival rate relative to the vehicle control” value [5] was ≥ 50%. For the same compound, the “Change in bioluminescence signal (total flux) after inoculation” value [1] was “progressive reduction in the bioluminescence signal”.
